Experimental findings from patent US20240279232A1, “USE OF SUBSTITUTED 5-(4-METHYL-6-PHENYL-4H-BENZO[F]IMIDAZO[1,5-A][1,4] DIAZEPIN-3-YL)-1,2,4-O[…] THE TREATMENT OF INFLAMMATORY CONDITIONS” (priority 2021, published 2024) are described below.

In series [1] the target is T1, DOR (δ opioid receptor) (Homo sapiens, UniProt P41143).
T1 construct: expressed in transfected cells; host or cells: HEK293
As to the kind of experiment: DOR radioligand binding ([3H]-DADLE, HEK293 cell homogenates). Particulars: for inhibition at 10 µM: Percent inhibition at 10,000 nM, [3H]-DADLE.

The test system of series [2] is RAW macrophages. The experiment in a line: Cell viability (CellTiter-Glo), RAW macrophages. Particulars: for Cell viability (%) RAW macrophages 50 μM: CellTiter-Glo. The series is classed as cell-based, mouse.
Series [3] concerns RAW macrophages. The experiment in a line: NO production (Griess assay), LPS/IFNγ-activated RAW264.7 macrophages. The class given is cell-based, mouse. Particulars: Mus musculus, Macrophage, 24 h. For orientation: Nitrite, measured by Griess reagent, commonly stands in for NO production.
For series [4], the system named is HEPG2. The experiment in a line: Viability assay (CellTiter-Glo), HEPG2. The series is classed as cell-based, human. The following applies: for Cell viability (%) HEPG2 120 μM: CellTiter-Glo. (In general: ATP-based viability assays read luminescence as a measure of living cells.)
Series [5] deals with T2, MOR (μ opioid receptor) (Homo sapiens, UniProt P35372).
T2 construct: expressed in transfected cells; host or cells: HEK293
The experiment in a line: MOR radioligand binding ([3H]-DAMGO, HEK293 cell homogenates). Particulars: for inhibition at 10 µM: Percent inhibition at 10,000 nM, [3H]-DAMGO.

Series [6] deals with Mouse microglia. As to the kind of experiment: Cell viability (CellTiter-Glo), mouse microglia. The class given is cell-based. Particulars: 50 μM; for Cell viability (%) Mouse microglia 50 μM: CellTiter-Glo. The procedure, abridged:
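Mouse microglia (1×10^6 cells/mL) activated with 50 ng/ml LPS plus 150 U/mL IFNγ, incubated with compounds ~24 h at 37° C. Viability of remaining cells read by CellTiter-Glo luminescence after supernatant removal for Griess NO assay; […].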

In series [7] the test system is BZR (benzodiazepine site of GABAAR). The experiment in a line: GABAAR/BZR binding, rat brain homogenate with 3H-flunitrazepam. Particulars: for BZR %: Percent inhibition at 10,000 nM. The procedure, abridged: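 Rat brain homogenate incubated with 3H-flunitrazepam near its Kd, typically 90 min at room temperature in the dark; nonspecific binding defined with 10 μM reference compound. Filtration on PEI-soaked mats, scintillation counting; compounds screened at 10,000 nM, those above 50% displacement taken to concentration–response for Ki by nonlinear regression (n=6).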

Where [8] appears, read: rat brain homogenate, 3H-flunitrazepam.

T1 sequence (P41143 whole entry): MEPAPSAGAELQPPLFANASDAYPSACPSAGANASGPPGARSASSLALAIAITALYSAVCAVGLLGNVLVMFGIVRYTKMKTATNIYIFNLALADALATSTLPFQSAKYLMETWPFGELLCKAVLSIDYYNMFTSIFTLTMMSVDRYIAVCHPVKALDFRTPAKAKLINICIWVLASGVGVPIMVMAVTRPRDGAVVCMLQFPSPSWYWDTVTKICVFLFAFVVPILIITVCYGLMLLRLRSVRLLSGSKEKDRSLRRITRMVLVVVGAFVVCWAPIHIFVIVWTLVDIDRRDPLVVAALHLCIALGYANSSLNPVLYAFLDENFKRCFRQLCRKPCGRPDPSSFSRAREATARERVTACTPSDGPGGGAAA
T2 sequence (P35372 whole entry, species assumed): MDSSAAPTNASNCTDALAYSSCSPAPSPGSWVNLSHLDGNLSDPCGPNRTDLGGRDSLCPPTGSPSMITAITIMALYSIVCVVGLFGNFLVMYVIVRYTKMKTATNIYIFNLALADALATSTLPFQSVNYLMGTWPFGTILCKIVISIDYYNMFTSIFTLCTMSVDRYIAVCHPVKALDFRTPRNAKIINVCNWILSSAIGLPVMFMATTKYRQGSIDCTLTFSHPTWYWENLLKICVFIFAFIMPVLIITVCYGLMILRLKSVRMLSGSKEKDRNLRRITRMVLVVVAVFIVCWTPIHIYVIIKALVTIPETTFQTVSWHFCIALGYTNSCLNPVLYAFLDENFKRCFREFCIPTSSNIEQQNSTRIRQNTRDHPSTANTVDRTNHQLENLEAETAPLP

The inhibition is how much of the control response was suppressed. In general, Ki refers to the dissociation constant of the complex between target and ligand, obtained from inhibition or displacement. `C#Cc1ccc2c(c1)C(c1ccccc1F)=N[C@H](C)c1c(-c3nc(C)no3)ncn1-2` [MP-IV-004]: in series [1], the inhibition at 10 µM came out at 10%. Further, the “Cell viability (%) RAW macrophages 50 μM” value in series [2] is reported as 83 ± 12%. Moreover, in series [3], the inhibition at 10 µM was determined as 0% and the inhibition at 50 µM amounted to 51 ± 7%. Besides, the “Cell viability (%) HEPG2 120 μM” value in series [4] is recorded as 100 ± 4%. Further, the inhibition at 10 µM in series [5] came to 7%. Also, the “Cell viability (%) Mouse microglia 50 μM” value in series [6] was 100 ± 5%. Also, in series [7] (setting [8]), the BZR % came to 63% and the Ki came out at 1080 nM.
One may read the IC50 as the point on the concentration scale where inhibition reaches its midpoint. For `C#Cc1ccc2c(c1)C(c1ccccc1F)=N[C@H](C)c1c(-c3nc(C(C)C)no3)ncn1-2` [MP-IV-010, (R)-5-(8-ethynyl-6-(2-fluorophenyl)-4-methyl-4H-benzo[f]imidazo[1,5-a][1,4]diazepin-3-yl)-3-isopropyl-1,2,4-oxadiazole], in series [1] (PDSP primary screening), the “Percent Competition DOR” value came to 5%. Further, the results for the inhibition at 10 µM in series [1], in series [3] and in series [5] were 5%, 10 ± 2% and 33%, respectively. Also, the “Cell viability (%) RAW macrophages 50 μM” value in series [2] was found to be 81 ± 10%. Also, the “toxicity at 50 μM (in words)” value in series [2] (macrophages) and in series [6] (microglia) was “no significant toxicity” throughout. In series [3], the inhibition at 50 µM stood at 63 ± 11%. In series [4], the “Cell viability (%) HEPG2 120 μM” value was 45 ± 7%. For the same compound, the “toxicity at 120 μM (in words)” value in series [4] (HepG2, 120 μM) is “to a lesser degree”. Further, the “Percent Competition MOR” value in series [5] (PDSP primary screening) is reported as 33%. Also, in series [6], the “Cell viability (%) Mouse microglia 50 μM” value is on record as 91 ± 10%. In addition, the “Percent Competition BZP Rat Brain Site” value in series [7] (PDSP primary screening) came to 64%. The BZR % in series [7] (setting [8]) is 64%. The Ki in series [7] (setting [8]) turned out to be 814 nM. Besides, in series [7] (rat brain homogenate, 3H-flunitrazepam, read-out: affinity for the benzodiazepine site of GABAARs (IC50)), the IC50 was 2500 nM.
